Experimental findings from ChEMBL document CHEMBL3407361, “Structural exploration, synthesis and pharmacological evaluation of novel 5-benzylidenethiazolidine-2,4-dione derivatives as iNOS inhibitors against inflammatory diseases” (Eur J Med Chem, 2015) are described below.

SMILES strings stand for the structures. Converted amounts (≈) assume the structure as drawn. The source made the active and inactive calls. No cut-off for these calls is given here.

For series [1], the system named is RAW264.7. Kind of series: Inhibition of LPS-induced nitric oxide production in mouse RAW264.7 cells pre-incubated at 100 uM for 2 hrs before LPS challenge measured 18 hrs post LPS challenge by Griess method. The class given is functional, cell-based. On the technique in general: Nitrite, measured by Griess reagent, commonly stands in for NO production.
The test system of series [2] is RAW264.7. Kind of series: cells. To be noted: Mus musculus, RAW264.7, 24 h.
Description: Cytotoxicity against mouse RAW264.7 cells after 24 hrs by MTT assay
Series [3] has as its system RAW264.7. Put plainly: Cytotoxicity against LPS-stimulated mouse RAW264.7 cells after 24 hrs by MTT assay. To be noted: RAW264.7, 24 h. It is filed as cell-based.
In series [4] the test system is RAW264.7. Put plainly: Inhibition of LPS-induced nitric oxide production in mouse RAW264.7 cells pre-incubated for 2 hrs before LPS challenge measured 18 hrs post LPS challenge by Griess method. It is filed as functional, cell-based.
For series [5], the target named is T1, Nitric oxide synthase, inducible (Mus musculus, UniProt P29477).
T1 sequence (P29477 whole entry): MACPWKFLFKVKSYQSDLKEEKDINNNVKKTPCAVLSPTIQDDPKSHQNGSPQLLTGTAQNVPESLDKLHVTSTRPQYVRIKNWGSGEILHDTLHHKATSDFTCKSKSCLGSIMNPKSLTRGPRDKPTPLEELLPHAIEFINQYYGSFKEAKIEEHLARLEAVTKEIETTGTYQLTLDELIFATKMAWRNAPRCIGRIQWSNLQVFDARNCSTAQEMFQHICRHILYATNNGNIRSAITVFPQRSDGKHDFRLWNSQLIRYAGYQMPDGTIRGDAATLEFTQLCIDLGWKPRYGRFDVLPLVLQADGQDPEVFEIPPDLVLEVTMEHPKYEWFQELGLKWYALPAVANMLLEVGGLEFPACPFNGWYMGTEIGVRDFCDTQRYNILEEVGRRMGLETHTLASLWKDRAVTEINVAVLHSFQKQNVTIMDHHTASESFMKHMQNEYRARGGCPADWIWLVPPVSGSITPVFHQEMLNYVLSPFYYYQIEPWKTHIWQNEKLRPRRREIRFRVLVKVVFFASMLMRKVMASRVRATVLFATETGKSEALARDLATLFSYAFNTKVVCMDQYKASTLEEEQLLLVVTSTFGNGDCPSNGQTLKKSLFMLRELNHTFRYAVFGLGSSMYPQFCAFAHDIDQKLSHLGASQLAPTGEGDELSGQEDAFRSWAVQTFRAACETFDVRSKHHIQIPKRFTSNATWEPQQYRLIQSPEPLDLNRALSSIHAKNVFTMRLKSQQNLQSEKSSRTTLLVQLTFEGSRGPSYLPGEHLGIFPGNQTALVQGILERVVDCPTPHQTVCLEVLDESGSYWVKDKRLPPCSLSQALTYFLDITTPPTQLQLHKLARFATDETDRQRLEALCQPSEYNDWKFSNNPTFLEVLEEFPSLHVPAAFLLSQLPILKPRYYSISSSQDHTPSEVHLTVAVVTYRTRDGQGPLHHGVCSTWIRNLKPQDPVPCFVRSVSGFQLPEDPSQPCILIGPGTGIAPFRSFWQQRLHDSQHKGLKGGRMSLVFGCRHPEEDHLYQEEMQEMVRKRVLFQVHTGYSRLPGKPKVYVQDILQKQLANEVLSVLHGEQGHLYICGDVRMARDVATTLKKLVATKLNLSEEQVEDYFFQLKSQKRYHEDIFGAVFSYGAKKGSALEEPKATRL
Put plainly: Inhibition of iNOS-induced nitric oxide production in LPS-stimulated mouse RAW264.7 cells pre-incubated for 2 hrs before LPS challenge by fluorescence assay. The class given is cell-based.

Series [6] relates to Mus musculus. Put plainly: Antiinflammatory activity in ICR mouse assessed as inhibition of carrageenan-induced paw edema at 10 mg/kg, po administered 30 mins before carrageenan challenge measured after 2 hrs. The class given is functional. (The carrageenan paw model is a standard test of acute inflammation.)
A short description of series [7]: Cmax in Sprague-Dawley rat at 5 mg/kg. The class given is ADME, organism-based. Also noted: dose 5 mg/kg. To be noted: in vivo.
A short description of series [8]: Solubility in PBS at pH 7.4 assessed as maximum soluble concentration at 25 degC by nephelometry. The class given is physicochemical.
Series [9] is described as follows: Tmax in Sprague-Dawley rat at 5 mg/kg. It is filed as ADME, organism-based. Also noted: dose 5 mg/kg. To be noted: in vivo.
Series [10] concerns Rattus norvegicus. Put plainly: Antiinflammatory activity in CFA-induced Lewis rat arthritis model at 10 mg/kg, po. It is filed as functional, organism-based. On the set-up: dose 10 mg/kg.
A short description of series [11]: AUC (0 to t) in Sprague-Dawley rat at 5 mg/kg. It is filed as ADME, organism-based. On the set-up: dose 5 mg/kg. To be noted: plasma.
Series [12] in a line: AUC (0 to t) in Sprague-Dawley rat at 20 mg/kg, po. Particulars: plasma. It is filed as ADME, organism-based. Also noted: dose 20 mg/kg, route oral.
Series [13] in a line: Oral bioavailability in Sprague-Dawley rat at 20 mg/kg. The class given is ADME, organism-based. Particulars: in vivo.
A short description of series [14]: Half life in Sprague-Dawley rat at 20 mg/kg, po. It is filed as ADME, organism-based. Also noted: dose 20 mg/kg, route oral. To be noted: in vivo.
Series [15] can be described thus: Solubility in EtOH assessed as maximum soluble concentration at 25 degC by nephelometry. Particulars: ethanol. It is filed as physicochemical.
Series [16] in a line: Tmax in Sprague-Dawley rat at 20 mg/kg, po. It is filed as ADME, organism-based. On the set-up: dose 20 mg/kg, route oral. To be noted: in vivo.
Series [17] can be described thus: Cmax in Sprague-Dawley rat at 20 mg/kg, po. The class given is ADME, organism-based. Also noted: dose 20 mg/kg, route oral. To be noted: in vivo.
Series [18] is described as follows: Half life in Sprague-Dawley rat at 5 mg/kg. Also noted: dose 5 mg/kg. The class given is ADME, organism-based. To be noted: in vivo.

Consider `O=C(COc1ccc(C=C2C(=O)NC(=S)NC2=O)cc1)Nc1cccc(Cl)c1`, for which, in series [1], the inhibition entry was “Active”.

For the compound `O=C(COc1cccc(/C=C2\SC(=O)NC2=O)c1)Nc1cccc(Cl)c1`, in series [1], the inhibition entry is “Active”.

Regarding `N=C1NC(=O)/C(=C/c2ccc(OCC(=O)Nc3cccc(Cl)c3)cc2)S1`, the inhibition entry in [1] is “Active”.

As to `COCN1C(=O)S/C(=C\c2ccc(OCC(=O)Nc3cccc(Cl)c3)cc2)C1=O`, the IC50 (as a rule, the point on the concentration scale where inhibition reaches its midpoint) is 68.4 µM in series [2], 72.5 µM in series [3] and > 80 µM in series [4].

On to `O=C(COc1ccc(/C=C2\SC(=O)N(CCN3CCCC3)C2=O)cc1)Nc1cccc(Cl)c1`, for which the inhibition entry in [1] is “Active”.

Take `O=C(COc1ccc(/C=C2\NC(=O)N(Cc3ccccc3)C2=O)cc1)Nc1cccc(Cl)c1`: the inhibition entry in series [1] was “Active”. The IC50 in [2] is > 80 µM; in [3] it was 46.3 µM; in series [5], 43.2 µM; in series [4], 75.4 µM.

`COc1cc(/C=C2\SC(=O)NC2=O)cc(OC)c1OCC(=O)Nc1cccc(Cl)c1`: the inhibition in vivo (as a rule, the percentage by which the read-out fell short of the control) at 10 mg/kg in series [6] was 26.1%. The results for the Cmax in [7] and in [17] were 332 ng/mL and 46.2 ng/mL, respectively. Moreover, the values for the kinetic solubility in series [8] and in series [15] were < 500 µg/mL and 3100 µg/mL (≈ 6.91 mM), respectively. For the same compound, the inhibition entry in series [1] is “Active”. Further, the Tmax (usually the time at which the peak concentration occurs) amounted to 4.2 min in series [9] and 2.27 h in series [16]. The IC50 in series [2] was > 80 µM; in series [3] it was > 80 µM; in series [5], 25.2 µM; in series [4], 45.6 µM. The result in [10] was Active. Also, the AUC(0-t) (as a rule, the area under the concentration-time curve up to a stated or last time point) was 387 ng·h/mL in series [11] and 421 ng·h/mL in series [12]. For the same compound, in series [13], the bioavailability (in general, the share of a dose that reaches the circulation, judged against a reference dose that is usually intravenous) turned out to be 27.2%. Also, the figures for the half-life in series [14] and in [18] were 5.9 h and 7.83 h, respectively.

With `COc1ccc2c(c1)c(CC(=O)O)c(C)n2C(=O)c1ccc(Cl)cc1` [INDOMETHACIN], in series [6], the inhibition in vivo at 10 mg/kg worked out at 33.5%. The values for the IC50 in series [2], in series [3] and in series [4] were > 80 µM, > 80 µM and 40.3 µM, respectively.

For the compound `O=C(O)CN1C(=O)/C(=C/c2ccc(OCC(=O)Nc3cccc(Cl)c3)cc2)SC1=S`, the inhibition entry in series [1] was “Active”. For the same compound, the half-inhibitory concentration (IC50) in series [2] was > 80 µM; in [3], > 80 µM; in series [5], 47.8 µM; in [4] it was 68.9 µM.

In the case of `COC(=O)CCN1C(=O)S/C(=C\c2ccc(OCC(=O)Nc3cccc(Cl)c3)cc2)C1=O`, the inhibition result in series [1] is “Active”.

For the compound `O=C(COc1ccc(/C=C2\SC(=O)N(CCN3CCCCC3)C2=O)cc1)Nc1cccc(Cl)c1`, the inhibition entry in [1] is “Active”.

On to `C#CCN1C(=O)S/C(=C\c2ccc(OCC(=O)Nc3cccc(Cl)c3)cc2)C1=O`, for which, in series [1], the inhibition result is “Active”.

Take `O=C(COc1ccc(/C=C2\SC(=O)N(CC(=O)Nc3ccccc3)C2=O)cc1)Nc1cccc(Cl)c1`: the inhibition entry in [1] is “Active”.

As for `CC(CN(C)C)CN1C(=O)S/C(=C\c2ccc(OCC(=O)Nc3cccc(Cl)c3)cc2)C1=O` (centres undefined), the inhibition entry in series [1] is “Active”. The IC50 is > 80 µM in series [2], > 80 µM in series [3], 32.1 µM in series [5] and 53.2 µM in series [4].

Consider `O=C(COc1ccc(/C=C2\SC(=O)NC2=O)cc1)Nc1cccc(Cl)c1`, for which the inhibition in vivo at 10 mg/kg in series [6] was 37.8%. Moreover, the kinetic solubility (commonly the concentration staying in solution when a stock, usually in DMSO, is diluted into the medium) in series [8] is < 500 µg/mL; in [15], 1500 µg/mL (≈ 3.86 mM). The IC50 in series [2] was > 80 µM; in series [3], > 80 µM; in series [4] it was 21.3 µM.
